The values that follow come from US20140328757A1, “COMPOSITIONS COMPRISING ASCORBIC ACID AND AN IMAGING AGENT AND RELATED METHODS” (Lantheus Medical Imaging, Inc., priority 2011, published 2014).

Data set [1] is described as follows: pH and the chemical integrity (rate of non-radioactive impurity formation) of the non-radioactive congener. Type of data set: physicochemical. Particulars: ascorbic acid 50 mg/mL, congener 5 μg/mL, ethanol 5%, treated with [18F]NaF. As for the experimental part:
(§1) Both chemical integrity and overall stability of a radiopharmaceutical composition is measured through determination of the change in RCP of the labeled compound over time using ITLC or more preferably HPLC. The advantage of using HPLC is that impurities caused by radiolytic degradation may be readily separated from the labeled compound under certain chromatographic conditions. […] Several HPLC methods have been developed for monitoring the stability of radiopharmaceutical compositions of the present invention:
(§2) Analytical HPLC was performed on an Agilent Technologies 1100 LC containing a spectrophotometric detection system. Non-radiochemical impurities were evaluated at 295 nm using a Waters Zorbax SB-C18 column (4.6×50 mm, 1.8 μm) with an 8%/min gradient from 20-100% MeCN containing 0.1% formic acid and 10% H2O at 1 mL/min
The chemical integrity of radiopharmaceutical compositions containing the non-radioactive congener of the imaging agent (2-(tert-butyl)-4-chloro-5-((4-((2-fluoroethoxy)methyl)benzyl)oxy)pyridazin-3(2H)-one) was assessed over a range of pH values. […] The resulting solutions were treated with [^18F]NaF then monitored for changes in chemical purity (non-radioactive impurities) over time using the HPLC methods outlined in Example 5.

The conditions of data set [2]: cited from earlier work.
Data set [3] in a line: pH and the stability (radiochemical purity over time) of an imaging agent. The data set is classed as physicochemical. The conditions noted are these: ascorbic acid solutions with higher pH values (pH 5.8 and 6.5) versus more acidic compositions (pH 2.4-4.6). As for the experimental part: (§3) was then collected, diluted with an ascorbic acid solution (10-15 mL), then passed through a C18 Sep-Pak® cartridge, previously conditioned with 10 mL of ethanol followed by 10 mL of an ascorbic acid solution; The imaging agent was retained within the C18 resin matrix and the filtrate discarded. The cartridge was then successively washed with an ascorbic acid solution (10 mL), the filtrate discarded, then absolute ethanol (≦0.5 mL) and the filtrate collected. The resulting ethanol concentrate of the imaging agent was then diluted with an ascorbic acid solution prior to use.
(§4) Both chemical integrity and overall stability of a radiopharmaceutical composition is measured through determination of the change in RCP of the labeled compound over time using ITLC or more preferably HPLC. The advantage of using HPLC is that impurities caused by radiolytic degradation may be readily separated from the labeled compound under certain chromatographic conditions. […]
Analytical HPLC was performed on an Agilent Technologies 1100 LC containing a radiometric detection system. Radiochemical impurities were evaluated using a Berthold radiation detector and a Waters Zorbax SB-C18 column (4.6×50 mm, 1.8 μm) using an isocratic elution (45:55 H2O/MeCN) at 1 mL/min […]
The stability of radiopharmaceutical compositions containing an imaging agent was assessed over a range of pH values. […]

Data set [4] in a line: Concentration of ascorbic acid and the stability (radiochemical purity over time) of an imaging agent. Type of data set: physicochemical. The conditions noted are these: pH 5.8. The procedure: as §3, §4
The stability of radiopharmaceutical compositions containing an imaging agent was assessed over a range of ascorbic acid concentration values. […] Each solution was then utilized in the preparation of the imaging agent described in Example 4, and the resulting compositions monitored for changes in radiochemical purity over time using the HPLC methods described in Example 5.

Data set [5] can be described thus: Stability (radiochemical purity over time by HPLC) of radiopharmaceutical compositions over a range of ascorbic acid and radioactivity concentrations. Type of data set: physicochemical. The conditions noted are these: pH 5.8.
Text: The radiochemical purity (RCP) of a labeled compound (i.e., as in Example 3) is known to be dependent on certain conditions of its preparation including, but not limited to, reaction temperature, solution pH and overall synthesis time. Once prepared with high RCP, the labeled compound is formulated into a radiopharmaceutical composition designed to stabilize the labeled compound over time. Certain radiopharmaceutical compositions of the present invention are effective in maintaining the stability of labeled compounds for up to 12 h.
as §1
Analytical HPLC was performed on an Agilent Technologies 1100 LC containing a radiometric detection system. Radiochemical impurities were evaluated using a Berthold radiation detector and a Waters Zorbax SB-C18 column (4.6×50 mm, 1.8 μm) using an isocratic elution (45:55 H2O/MeCN) at 1 mL/min
as §2
Analytical HPLC was performed on an Agilent Technologies 1100 LC containing both radiometric and spectrophotometric detection systems. Radiochemical impurities were evaluated using a Raytest GabiStar radiation detector and non-radiochemical impurities were evaluated at 295 nm both using a Waters Zorbax SB-C18 column (4.6×50 mm, 1.8 μm) with a 6%/min gradient from 20-50% MeCN, followed by a 1.4%/min gradient from 50-60% MeCN, followed by a 2%/min gradient from 60-70% MeCN each containing 0.1% formic acid and 10% H2O at 1 mL/min.
Analytical HPLC was performed on an Agilent Technologies 1100 LC containing both radiometric and spectrophotometric detection systems. Radiochemical impurities were evaluated using a Raytest GabiStar radiation detector and non-radiochemical impurities were evaluated at 295 nm both using a Waters Zorbax SB-C18 column (4.6×50 mm, 1.8 μm) with a 30%/min gradient from 30-60% MeCN, followed by a 2 min isocratic hold at 60% MeCN, followed by a 5%/min gradient from 60-80% MeCN each containing 0.1% trifluoroacetic acid and 10% H2O at 1 mL/min
Aqueous [^18F]fluoride, as prepared in Example 1, was filtered through an anion exchange column to remove unreacted [^18O]H2O; [^18F]fluoride was retained within the […] resin matrix. The column was then washed with aqueous Et4NHCO3 with transfer to the reaction vessel. The resulting solution was diluted with MeCN then concentrated to dryness using elevated temperature and reduced pressure. The mixture of anhydrous [^18F]Et4NF and Et4NHCO3 thus obtained was treated with the acetonitrile solution of the imaging agent precursor as prepared in Example 2, then warmed to 85-120° C. and maintained 5-20 min. After cooling, the solution was diluted with H2O or H2O/MeCN then directly purified by HPLC using a 45:55 H2O/MeCN eluent. The main product peak was collected and diluted with ascorbic acid (10 mL of a 0.28 M solution; pH 2).
was retained within the C18 resin matrix and the filtrate discarded. The cartridge was successively washed with ascorbic acid (10 mL of a 0.28 M solution in H2O; pH 2), the filtrate discarded, then absolute EtOH (≦0.50 mL), and the filtrate collected. […]

Molecules are shown by their SMILES.

Take `CC(C)(C)n1ncc(OCc2ccc(COCCF)cc2)c(Cl)c1=O` [2-(tert-butyl)-4-chloro-5-((4-((2-fluoroethoxy)methyl)benzyl)oxy)pyridazin-3(2H)-one]: in data set [1], the “Reaction order of formation of certain non-radioactive impurities (FIG. 2)” value is “first order”. The “Reduction in the rate of impurity formation (non-radioactive impurities, FIG. 2)” value in data set [1] (over the pH range considered (4.0-8.2)) is given as “ten-fold reduction”.

Consider `O=C1O[C@H]([C@@H](O)CO)C(O)=C1O` [ascorbic acid], for which the pKa result in data set [2] is listed as “about 4.2”.

Regarding `CC(C)(C)n1ncc(OCc2ccc(COCC[18F])cc2)c(Cl)c1=O` [imaging agent, 2-tert-butyl-4-chloro-5-[4-(2-[18F]fluoro-ethoxymethyl)-benzyloxy]-2H-pyridazin-3-one], the “Initial RCP and change in RCP over time (FIG. 1)” value in data set [3] was “markedly less initial stability and stability to storage”. Also, the “RCP (FIG. 3)” value in data set [4] (ascorbic acid 20 mg/mL) was “overall decrease in RCP”. Besides, in data set [4] (ascorbic acid 200 to 50 mg/mL), the “Initial RCP and variability in RCP over time (FIG. 3)” value is on record as “do not significantly change”. The “Radiochemical Purity” value in data set [5] (0 h, ascorbic acid 30 mg/mL, 29.5 mCi/mL, Siemens GN module) is recorded as 100.0%; in data set [5] (0 h, ascorbic acid 30 mg/mL, 68.0 mCi/mL, Eckert & Ziegler module) it was 100.0%; in data set [5] (0 h, ascorbic acid 50 mg/mL, 44.8 mCi/mL, Eckert & Ziegler module), 100.0%; in data set [5] (0 h, ascorbic acid 50 mg/mL, 47.0 mCi/mL, Siemens GN module) it was 100.0%; in data set [5] (0 h, ascorbic acid 50 mg/mL, 50.0 mCi/mL, Siemens RN module) it was 100.0%; in data set [5] (0 h, ascorbic acid 50 mg/mL, 65.4 mCi/mL, GE MX module), 100.0%. Also, the “Radiochemical Purity” value is 99.7% in data set [5] (0 h, ascorbic acid 50 mg/mL, 115.9 mCi/mL, Siemens GN module); 100.0% in data set [5] (3 h, ascorbic acid 30 mg/mL, 29.5 mCi/mL, Siemens GN module); 97.6% in data set [5] (3 h, ascorbic acid 30 mg/mL, 68.0 mCi/mL, Eckert & Ziegler module); 100.0% in data set [5] (3 h, ascorbic acid 50 mg/mL, 44.8 mCi/mL, Eckert & Ziegler module); 100.0% in data set [5] (3 h, ascorbic acid 50 mg/mL, 47.0 mCi/mL, Siemens GN module); 98.2% in data set [5] (3 h, ascorbic acid 50 mg/mL, 50.0 mCi/mL, Siemens RN module). Further, the “Radiochemical Purity” value in data set [5] (3 h, ascorbic acid 50 mg/mL, 65.4 mCi/mL, GE MX module) is given as 100.0%; in data set [5] (3 h, ascorbic acid 50 mg/mL, 115.9 mCi/mL, Siemens GN module) it was 97.1%; in data set [5] (6 h, ascorbic acid 30 mg/mL, 29.5 mCi/mL, Siemens GN module), 100.0%; in data set [5] (6 h, ascorbic acid 30 mg/mL, 68.0 mCi/mL, Eckert & Ziegler module), 96.7%; in data set [5] (6 h, ascorbic acid 50 mg/mL, 44.8 mCi/mL, Eckert & Ziegler module), 100.0%; in data set [5] (6 h, ascorbic acid 50 mg/mL, 47.0 mCi/mL, Siemens GN module), 99.2%. Also, the “Radiochemical Purity” value in data set [5] (6 h, ascorbic acid 50 mg/mL, 50.0 mCi/mL, Siemens RN module) came out at 99.0%; in data set [5] (6 h, ascorbic acid 50 mg/mL, 65.4 mCi/mL, GE MX module), 98.7%; in data set [5] (6 h, ascorbic acid 50 mg/mL, 115.9 mCi/mL, Siemens GN module), 97.1%; in data set [5] (9 h, ascorbic acid 30 mg/mL, 29.5 mCi/mL, Siemens GN module), 100.0%; in data set [5] (9 h, ascorbic acid 30 mg/mL, 68.0 mCi/mL, Eckert & Ziegler module) it was 96.2%; in data set [5] (9 h, ascorbic acid 50 mg/mL, 44.8 mCi/mL, Eckert & Ziegler module), 100.0%. Moreover, the “Radiochemical Purity” value was found to be 99.4% in data set [5] (9 h, ascorbic acid 50 mg/mL, 47.0 mCi/mL, Siemens GN module); 98.0% in data set [5] (9 h, ascorbic acid 50 mg/mL, 50.0 mCi/mL, Siemens RN module); 99.3% in data set [5] (9 h, ascorbic acid 50 mg/mL, 65.4 mCi/mL, GE MX module); 96.0% in data set [5] (9 h, ascorbic acid 50 mg/mL, 115.9 mCi/mL, Siemens GN module); 100.0% in data set [5] (12 h, ascorbic acid 30 mg/mL, 29.5 mCi/mL, Siemens GN module); 96.1% in data set [5] (12 h, ascorbic acid 30 mg/mL, 68.0 mCi/mL, Eckert & Ziegler module). In addition, the “Radiochemical Purity” value came out at 100.0% in data set [5] (12 h, ascorbic acid 50 mg/mL, 44.8 mCi/mL, Eckert & Ziegler module); 99.5% in data set [5] (12 h, ascorbic acid 50 mg/mL, 47.0 mCi/mL, Siemens GN module); 98.2% in data set [5] (12 h, ascorbic acid 50 mg/mL, 50.0 mCi/mL, Siemens RN module); 96.9% in data set [5] (12 h, ascorbic acid 50 mg/mL, 65.4 mCi/mL, GE MX module); 96.0% in data set [5] (12 h, ascorbic acid 50 mg/mL, 115.9 mCi/mL, Siemens GN module). In data set [5] (over 30 to 50 mg/mL ascorbic acid and 30 to 115 mCi/mL), the “Initial RCP and variability in RCP over time” value was “do not significantly change”.
